The results in this text go back to PMC12951562, “SH2scan: Mapping SH2 Domain-Ligand Binding Selectivity for Inhibitors and Degraders” (Journal of Medicinal Chemistry, 2026).

Assay in all cases: biochemical
What all share (format): binding

Assay [1] addresses T1, ABL2 (Homo sapiens, UniProt P42684).
T1 construct: the DNA-tagged SH2 domain concentrations used in this study were <0.1 nM; made in house; host or cells: HEK293 (transient transfection; unpurified extract)
T1 sequence (P42684 173-263 limits assumed): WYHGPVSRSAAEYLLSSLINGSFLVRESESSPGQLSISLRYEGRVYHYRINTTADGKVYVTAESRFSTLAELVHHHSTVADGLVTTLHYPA

The target in assay [2] is T2, CBLC (Homo sapiens, UniProt Q9ULV8).
T2 construct: the DNA-tagged SH2 domain concentrations used in this study were <0.1 nM; made in house; host or cells: HEK293 (transient transfection; unpurified extract)
T2 sequence (Q9ULV8 219-321 limits assumed): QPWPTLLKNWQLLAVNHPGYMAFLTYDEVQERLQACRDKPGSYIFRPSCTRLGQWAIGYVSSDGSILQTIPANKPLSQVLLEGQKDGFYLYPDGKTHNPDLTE

Assay [3] concerns the target T3, GADS (Homo sapiens, UniProt O75791).
T3 construct: the DNA-tagged SH2 domain concentrations used in this study were <0.1 nM; made in house; host or cells: HEK293 (transient transfection; unpurified extract)
T3 sequence (O75791 58-149 limits assumed): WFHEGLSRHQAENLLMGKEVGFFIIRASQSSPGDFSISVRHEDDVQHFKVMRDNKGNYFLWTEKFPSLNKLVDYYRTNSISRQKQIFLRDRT

Assay [4] addresses T4, YES (Homo sapiens, UniProt P07947).
T4 construct: the DNA-tagged SH2 domain concentrations used in this study were <0.1 nM; made in house; host or cells: HEK293 (transient transfection; unpurified cell extract)
The conditions noted are these: for remaining activity at 10 µM: read-out: percent of DMSO vehicle control.

For assay [5], the target named is T5, PTPN6(SH2dom.C-term.) (Homo sapiens, UniProt P29350).
T5 construct: SH2dom.C-term. denotes SH2 domain closest to C-terminus of protein; made in house; host or cells: HEK293 (transient transfection, unpurified extract)
T5 sequence (P29350 110-213 limits assumed): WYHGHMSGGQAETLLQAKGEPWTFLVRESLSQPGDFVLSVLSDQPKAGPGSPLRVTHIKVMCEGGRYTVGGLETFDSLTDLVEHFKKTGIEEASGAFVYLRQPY
The note with it: for remaining activity at 10 µM: read-out: percent of DMSO vehicle control.

Assay [6] has as its target T6, GRB14 (Homo sapiens, UniProt Q14449).
T6 construct: the DNA-tagged SH2 domain concentrations used in this study were <0.1 nM; made in house; host or cells: HEK293 (transient transfection; unpurified extract)
T6 sequence (Q14449 439-535 limits assumed): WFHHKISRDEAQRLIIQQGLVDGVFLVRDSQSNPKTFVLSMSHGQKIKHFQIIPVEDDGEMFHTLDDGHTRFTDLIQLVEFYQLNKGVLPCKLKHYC
The note with it: for remaining activity at 10 µM: read-out: percent of DMSO vehicle control.

Assay [7] concerns the target T7, STAT6 (Homo sapiens, UniProt P42226).
T7 construct: made in house; host or cells: HEK293 (transient transfection), unpurified extract
T7 sequence (P42226 1-847): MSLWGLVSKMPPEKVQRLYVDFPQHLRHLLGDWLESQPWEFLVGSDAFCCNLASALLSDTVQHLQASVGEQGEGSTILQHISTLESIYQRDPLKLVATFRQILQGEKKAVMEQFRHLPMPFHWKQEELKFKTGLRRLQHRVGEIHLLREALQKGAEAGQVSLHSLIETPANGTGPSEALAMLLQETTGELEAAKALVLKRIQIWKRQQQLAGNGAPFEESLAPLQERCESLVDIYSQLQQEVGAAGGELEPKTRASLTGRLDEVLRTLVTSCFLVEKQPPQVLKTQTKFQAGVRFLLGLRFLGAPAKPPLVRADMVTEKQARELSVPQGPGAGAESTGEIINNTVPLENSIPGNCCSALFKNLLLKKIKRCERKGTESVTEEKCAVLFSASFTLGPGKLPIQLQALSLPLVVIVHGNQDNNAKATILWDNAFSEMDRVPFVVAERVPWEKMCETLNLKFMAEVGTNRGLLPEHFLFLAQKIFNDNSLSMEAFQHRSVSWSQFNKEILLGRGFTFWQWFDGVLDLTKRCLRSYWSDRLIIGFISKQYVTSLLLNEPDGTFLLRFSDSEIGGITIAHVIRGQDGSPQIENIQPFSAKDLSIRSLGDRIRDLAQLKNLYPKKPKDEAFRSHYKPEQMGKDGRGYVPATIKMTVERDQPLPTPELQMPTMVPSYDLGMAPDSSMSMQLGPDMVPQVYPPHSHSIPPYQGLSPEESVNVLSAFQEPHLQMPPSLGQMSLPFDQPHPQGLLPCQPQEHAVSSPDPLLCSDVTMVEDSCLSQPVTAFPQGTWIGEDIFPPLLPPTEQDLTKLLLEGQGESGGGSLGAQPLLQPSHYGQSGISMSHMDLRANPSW
The conditions noted are these: for Kd: dose-response.

The target of assay [8] is T8, TEC (Homo sapiens, UniProt P42680).
T8 construct: made in house; host or cells: HEK293 (transient transfection), unpurified extract
T8 sequence (P42680 1-631): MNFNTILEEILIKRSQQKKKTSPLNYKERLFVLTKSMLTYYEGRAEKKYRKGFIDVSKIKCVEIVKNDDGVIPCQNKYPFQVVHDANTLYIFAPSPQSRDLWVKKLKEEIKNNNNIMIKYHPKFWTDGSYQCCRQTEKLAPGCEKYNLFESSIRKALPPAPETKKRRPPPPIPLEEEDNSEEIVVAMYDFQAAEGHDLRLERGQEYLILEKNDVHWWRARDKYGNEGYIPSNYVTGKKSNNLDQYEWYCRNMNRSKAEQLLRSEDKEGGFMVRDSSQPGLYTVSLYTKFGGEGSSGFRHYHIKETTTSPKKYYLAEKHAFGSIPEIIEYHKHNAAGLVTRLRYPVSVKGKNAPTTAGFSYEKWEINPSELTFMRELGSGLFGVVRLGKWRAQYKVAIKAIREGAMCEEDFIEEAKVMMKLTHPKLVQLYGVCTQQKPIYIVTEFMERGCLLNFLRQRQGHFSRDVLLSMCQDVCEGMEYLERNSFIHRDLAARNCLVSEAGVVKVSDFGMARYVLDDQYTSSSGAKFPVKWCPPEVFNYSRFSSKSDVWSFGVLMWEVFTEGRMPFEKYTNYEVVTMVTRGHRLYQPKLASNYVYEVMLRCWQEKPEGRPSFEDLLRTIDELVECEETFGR

Assay [9] addresses T9, SOCS1 (Homo sapiens, UniProt O15524).
T9 construct: made in house; host or cells: HEK293 (transient transfection), unpurified extract
T9 sequence (O15524 1-211): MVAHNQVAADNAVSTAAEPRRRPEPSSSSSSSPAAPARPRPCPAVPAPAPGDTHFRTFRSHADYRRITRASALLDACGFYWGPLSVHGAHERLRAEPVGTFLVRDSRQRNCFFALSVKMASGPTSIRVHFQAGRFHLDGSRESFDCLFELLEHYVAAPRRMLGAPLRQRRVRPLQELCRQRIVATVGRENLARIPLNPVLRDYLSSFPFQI
The conditions noted are these: for remaining activity at 10 µM: read-out: percent of DMSO vehicle control.

Setting [10] is: read-out: percent of DMSO vehicle control.
Setting [11] is: primary screen, 10 μM, read-out: percent of DMSO vehicle control.

Molecules are shown by their SMILES. Read-outs that look alike come from different tables or passages of the source. Non-standard residues stand in square brackets, D forms with d. Residues, ends and D or L forms follow the SMILES beside them. pY = N[C@@H](Cc1ccc(OP(=O)(O)O)cc1)C(=O)O

T4 sequence (P07947 158-255 limits assumed): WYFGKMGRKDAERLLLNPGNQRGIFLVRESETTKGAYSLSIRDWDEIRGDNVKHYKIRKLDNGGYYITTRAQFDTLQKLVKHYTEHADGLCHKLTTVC

The Kd is a measure of binding affinity in units of concentration. `NC(=O)CC[C@H](NC(=O)[C@@H]1CC[C@@H]2CCN(C(=O)CCCCCC#Cc3cccc4c3CN(C3CCC(=O)NC3=O)C4=O)C[C@H](NC(=O)c3cc4cc(C(F)(F)P(=O)(O)O)ccc4[nH]3)C(=O)N21)C(=O)NC(c1ccccc1)c1ccccc1` (stereo partly shown) [SD-36]: the percent of DMSO vehicle control at 10 µM stood at 126% in assay [1] (setting [10]); 113 ± 4.5% in assay [2] (setting [10]); 140.4 ± 0.2% in assay [3] (setting [10]); 4.2 ± 0.1% in [7] (setting [10]); 121 ± 3% in [8] (setting [10]). Besides, the remaining activity at 10 µM in assay [4] worked out at 73.3 ± 11.9%; in [5], 108 ± 6.9%; in [6], 43.2 ± 2.9%; in [9], 132 ± 8.8%. This molecule came in with an equilibrium dissociation constant (Kd) in assay [7] of 1070 ± 740 nM.
For the molecule `CC(=O)N[C@@H](Cc1ccc(CP(=O)(O)O)cc1)C(=O)NC1(C(=O)N[C@@H](CC(N)=O)C(=O)NCCCc2c(O)ccc3ccccc23)CCCCC1` [CGP78850], in assay [1], the equilibrium dissociation constant (Kd) amounted to 1100 ± 120 nM. In addition, the percent of DMSO vehicle control at 10 µM is 6.2 ± 0.1% in [1] (setting [10]); 128 ± 29.6% in assay [2] (setting [10]); 42 ± 2.5% in assay [3] (setting [10]); 104 ± 11% in assay [7] (setting [10]); 126.5 ± 0.2% in assay [8] (setting [10]). In addition, the remaining activity at 10 µM was 66.7 ± 8.3% in assay [4], 130.9 ± 0.8% in [5], 45.5 ± 1.4% in assay [6] and 129 ± 11.7% in assay [9].
For the molecule `CC[C@H](C)[C@H](NC(=O)[C@H](CCC(=O)O)NC(=O)[C@H](CCC(=O)O)NC(=O)[C@H](Cc1ccc(OP(=O)(O)O)cc1)NC(C)=O)C(=O)N[C@@H](CCC(=O)O)C(N)=O` [Ac-pYEEIE-NH2] (Ac-[pY]EEIE-NH2), the “percent of DMSO vehicle control” value is reported as 110.7% in assay [1] (primary screen, 10 μM); 97.4±7.1% in [2] (primary screen, 10 μM); 115.5% in assay [3] (primary screen, 10 μM); 14.2±1.5% in assay [4] (primary screen, 10 μM); 110.0% in assay [5] (primary screen, 10 μM); 56.1±7.2% in [6] (primary screen, 10 μM). In addition, the “percent of DMSO vehicle control” value in [7] (primary screen, 10 μM) was found to be 162.5%; in [8] (primary screen, 10 μM), 119.3%; in [9] (primary screen, 10 μM), 128.1%. The molecule also registered a Kd in assay [4] of 3800 nM.
On to `O=C(COc1ccc2cc(C(=O)Nc3ccccc3)ccc2c1)NCc1ccc(OP(=O)(O)O)c(OP(=O)(O)O)c1` [Stafib-1], for which the remaining activity at 10 µM in [1] (setting [11]) was 106%; in assay [2] (setting [11]) it was 100%; in [3] (setting [11]) it was 51.9 ± 12.6%; in assay [4] (primary screen, 10 μM) it was 63.1 ± 24.3%; in assay [5] (primary screen, 10 μM), 179%; in assay [6] (primary screen, 10 μM) it was 55.1 ± 11.6%. Also, the remaining activity at 10 µM in assay [7] (setting [11]) was 18.2%; in assay [8] (setting [11]), 159%; in assay [9] (primary screen, 10 μM), 156%. Moreover, the Kd in [7] (read-out: KD) turned out to be 7300 ± 2300 nM.
